This is an account of results in the NIST ThermoML archive (doi:10.1016/j.jct.2005.04.009).

Numbers after ± are expanded uncertainties.

The conditions of data set [1]: 101.33 kPa, Liquid, Alternating current cell with electrodes.
Data set [2] is described as follows: wn = mass fraction of the nth substance listed. The conditions noted are these: 100 kPa, Liquid, Alternating current cell with electrodes.

On to `CCCCCC[n+]1ccn(C)c1.O=S(=O)([N-]S(=O)(=O)C(F)(F)F)C(F)(F)F`, for which the electrical conductivity came out at 0.135 ± 0.02 S/m in data set [1] (288.15 K); 0.173 ± 0.02 S/m in data set [1] (293.15 K); 0.218 ± 0.02 S/m in data set [1] (298.15 K); 0.327 ± 0.02 S/m in data set [1] (308.15 K); 0.546 ± 0.02 S/m in data set [1] (323.15 K).

For `CCCC[n+]1ccn(C)c1.O=S(=O)([N-]S(=O)(=O)C(F)(F)F)C(F)(F)F`, the electrical conductivity in data set [1] (288.15 K) stood at 0.265 ± 0.02 S/m; in data set [1] (293.15 K), 0.331 ± 0.02 S/m; in data set [1] (298.15 K), 0.406 ± 0.02 S/m; in data set [1] (308.15 K) it was 0.585 ± 0.02 S/m; in data set [1] (323.15 K), 0.924 ± 0.02 S/m.

As for `CCn1cc[n+](C)c1.O=S(=O)([N-]S(=O)(=O)C(F)(F)F)C(F)(F)F`, the electrical conductivity in data set [1] (288.15 K) worked out at 0.644 ± 0.02 S/m; in data set [1] (293.15 K) it was 0.773 ± 0.02 S/m; in data set [1] (298.15 K), 0.912 ± 0.02 S/m; in data set [1] (308.15 K) it was 1.23 ± 0.02 S/m; in data set [1] (323.15 K), 1.79 ± 0.02 S/m.

For `CCCC[n+]1ccn(C)c1.O=S(=O)([N-]S(=O)(=O)C(F)(F)F)C(F)(F)F` + O, the electrical conductivity is 0.265 ± 0.02 S/m in data set [2] (288.15 K, w2 = 1e-05); 0.266 ± 0.02 S/m in data set [2] (288.15 K, w2 = 8e-05); 0.277 ± 0.02 S/m in data set [2] (288.15 K, w2 = 0.00102); 0.365 ± 0.021 S/m in data set [2] (288.15 K, w2 = 0.00885); 0.331 ± 0.02 S/m in data set [2] (293.15 K, w2 = 1e-05); 0.332 ± 0.02 S/m in data set [2] (293.15 K, w2 = 8e-05). Moreover, the electrical conductivity was determined as 0.345 ± 0.02 S/m in data set [2] (293.15 K, w2 = 0.00102); 0.449 ± 0.021 S/m in data set [2] (293.15 K, w2 = 0.00885); 0.406 ± 0.02 S/m in data set [2] (298.15 K, w2 = 1e-05); 0.408 ± 0.02 S/m in data set [2] (298.15 K, w2 = 8e-05); 0.422 ± 0.02 S/m in data set [2] (298.15 K, w2 = 0.00102); 0.542 ± 0.022 S/m in data set [2] (298.15 K, w2 = 0.00885).

As to `CCCCn1cc[n+](C)c1.F[P-](F)(F)(F)(F)F` [1-butyl-3-methylimidazolium hexafluorophosphate], the electrical conductivity in data set [1] (288.15 K) was 0.079 ± 0.02 S/m; in data set [1] (293.15 K), 0.109 ± 0.02 S/m; in data set [1] (298.15 K) it was 0.146 ± 0.02 S/m; in data set [1] (308.15 K), 0.247 ± 0.02 S/m; in data set [1] (323.15 K) it was 0.477 ± 0.02 S/m.
